Experimental data reported in patent US20190106454A1, “COMPOUNDS LINKED WITH A SACCHARIDE METAL COMPLEX AND USES THEREOF” (FRED HUTCHINSON CANCER RESEARCH CENTER, priority 2016, published 2019).
Entries after “also recorded” stand apart in the source; their conditions may differ.

Columns and labels:
[1] = tested on: renal injury in rats; conditions: cited from earlier work
[2] = tested on: heme oxygenase 1 (HO-1); assay: Induction of HO-1 mRNA (RT-PCR) and protein (ELISA) in renal cortex and plasma; assay type: in vivo, mice; conditions: for renal cortical HO-1 mRNA induction / increase in renal cortical HO-1 levels over baseline: 1 umole; for renal cortical HO-1 mRNA induction: RT-PCR (FIG. 11); for renal cortical HO-1 protein levels / increase in renal cortical HO-1 levels over baseline: ELISA
Source text: (§1) Methods. Male CD-1 mice (25-40 grams) Charles River, Wilmington, Mass.) were used for all experiments. They were housed under standard vivarium conditions with free food and water access. All experiments were approved by the Fred Hutchinson Cancer Research Center IACUC in accordance with NIH guidelines.
Effects of FeS, SnPP, and B12 on renal cortical induction of heme oxygenase 1 (HO-1). The following experiments assessed the effects of FeS, SnPP, and B12 on the possible induction of the cytoprotective protein HO-1. To this end, mice were injected with each of these agents, as noted above. Either 4 or 18 hrs later, they were anesthetized and the kidneys were removed through a midline abdominal incision. The renal cortices were dissected on ice and then extracted for protein and mRNA. The samples were then assayed for HO-1 protein by ELISA, and HO-1 mRNA by RT-PCR, factored by GAPDH levels. Five normal mice provided control values. […]

[3] = tested on: kidney dysfunction in glycerol model rhabdomyolysis; conditions: blocking HO with competitive inhibitor; cited from earlier work
[4] = tested on: maleate-induced AKI in mice; assay: Maleate model of AKI; assay type: in vivo; conditions: IV pre-treatment 18 hrs before IP Na maleate 800 mg/Kg, read 18 hrs post maleate
Source text: as §1
Effects of Fe sucrose (FeS)/tin protoporphyrin (SnPP) on AKI severity. Maleate model of AKI. When injected into rodents, maleate undergoes relatively selective proximal tubule cell uptake via organic anion transporters. Once intracellular accumulation occurs, maleate is a preferred substrate for succinyl-CoA:3-oxoacid CoA transferase. […] Ample levels of CoA are essential for fatty acid “activation”, allowing for their subsequent metabolism through the Krebs cycle, yielding ATP. In the absence of this process, proximal tubule ATP depletion and cell injury result. Additionally, maleate conjugates the sulfhydryl group of glutathione (GSH), culminating in GSH depletion and potential oxidant tubular stress.
The following experiment tested whether FeS, SnPP or combined FeS+SnPP can mitigate this form of acute kidney injury (AKI). Twenty seven mice were subjected to 200 μL IV tail injections of one of the following: 1) vehicle (phosphate buffered saline, PBS; n, 10); 2) 1 mg FeS (American Regent (Shirley, N.Y.; n, 3); 3) 1 μmole SnPP (Frontier Scientific, Logan, Utah; n 7), or FeS+SnPP, n, 7). Eighteen hrs later, all mice received an IP injection of Na maleate (800 mg/Kg; in 500 ul of PBS). Eighteen hrs later, the mice were deeply anesthetized with pentobarbital (50 mg/Kg IP), the abdominal cavities were opened, and blood samples were obtained from the abdominal vena cava. The severity of kidney injury was assessed by determining plasma blood urea nitrogen (BUN) and plasma creatinine (PCr) concentrations.
Maleate model of AKI. Mice received tail vein injections of either combination of FeS+B12 or vehicle (n, 6 per group). Eighteen hrs later they received IP maleate injections, as noted above. The severity of AKI was determined 18 hrs post maleate injection by terminal BUN and PCr assessments.

[5] = tested on: haptoglobin; assay: Induction of haptoglobin mRNA and protein in renal cortex and plasma; assay type: in vivo, mice; conditions: 1 umole; for renal cortical haptoglobin mRNA induction: 4 hrs post injection, RT-PCR (FIG. 11)
Description: MesP up-regulates Nrf2 sensitive genes. Mice are injected MesP (0.1-2.5 umoles/mouse) or with a MesP vehicle. At either 4 or 18 hrs, the mice are deeply anesthetized with pentobarbital and the kidneys are removed through a midline abdominal incision. The renal cortices are dissected on ice, extracted for protein and mRNA, and assayed for HO-1 and haptoglobin protein and mRNA levels by ELISA and competitive RT-PCR, respectively. In this regard, both HO-1 and haptoglobin are Nrf2 sensitive genes. An increase in HO-1 and haptoglobin mRNA and protein levels at 4 hrs and 18 hrs post MesP administration, respectively, is measured to confirm MesP, like SnPP, induces Nrf2 signaling.

[6] = tested on: Ferritin heavy (Fhc); assay: Ferritin heavy chain Western blotting of renal cortex; assay type: in vivo, mice; conditions: 18 hr post treatment, Western blot band densitometry
Description: Ferritin heavy (Fhc) expression in renal cortex. HO-1 activity leads to increased Fhc expression. […] Because Fe sucrose also induces Fhc expression, the potential impact of SnPP treatment on this response was assessed (18 hrs post 1 mg FeS±concomitant SnPP treatment (n, 4 each)).

[7] = tested on: heme oxygenase 1 (HO-1); assay: Induction of HO-1 mRNA (RT-PCR) and protein (ELISA) in renal cortex and plasma; assay type: in vivo, mice; conditions: 1 umole, 18 hrs post injection
[8] = tested on: renal ischemia-reperfusion (IRI) induced AKI in mice; assay: Renal ischemic-reperfusion injury (IRI) model of AKI; assay type: in vivo; conditions: 1 umole 18 hrs before 22 min bilateral ischemic injury
Description: as §1
Renal ischemic—reperfusion injury (IRI) model of AKI. The following experiment assessed whether combination FeS+SnPP can mitigate the renal artery occlusion model of AKI. Mice received 200 μl tail vein injections of either PBS (n, 9) or FeS+SnPP (n, 8), as noted above. Eighteen hrs later, the mice were deeply anesthetized with pentobarbital (40-50 mg/Kg IP), the abdominal cavities were opened, the renal pedicles were identified and both were occluded with microvascular clamps. Body temperature was maintained at 36-37° C. throughout. Following 22 minutes of bilateral renal ischemia, the clamps were removed, uniform reperfusion was visually confirmed by the reappearance of a normal renal color (loss of tissue cyanosis), and then the abdominal cavities were closed in two layers with silk suture. […] The severity of renal injury was determined by BUN and PCr concentrations.
Protection against acute kidney injury. […] AKI severity are determined by degrees of BUN and plasma creatinine increases.

For `C=Cc1c2[n-]c(c1C)/C=c1\[n-]/c(c(C)c1C=C)=C\c1[n-]c(c(CCC(=O)O)c1C)/C=c1\[n-]c(c(C)c1CCC(=O)O)=C2.[Sn+4]` [SnPP, tin protoporphyrin], the “fractional excretion of sodium” value ([1]; day 2 after cisplatin, rats) is given as “increased”, the “renal blood flow rates” value ([1]; day 2 after cisplatin, rats) is given as “reduced” and the renal vascular resistance ([1]; day 2 after cisplatin, rats) is given as “increased”. For the same molecule, the inulin clearances ([1]; day 5) was “lower”, the serum creatinine values ([1]; days 3 through 5) was “higher” and the renal injury ([1]; pretreatment) was “exacerbated renal injury”. For the same molecule, the “renal cortical HO-1 mRNA induction” value ([2]; 4 hrs post injection) was “raised”, the kidney dysfunction [3] was “exacerbated kidney dysfunction” and the “severity of renal injury (BUN and PCr)” value [4] was “Neither SnPP alone nor FeS alone significantly altered the severity of renal injury”. For the same molecule, the “severity of renal injury (BUN and PCr)” value ([4]; listed as Sn-protoporphyrin) was “Neither Sn-protoporphyrin alone nor iron-sucrose alone significantly altered the severity of renal injury”, the “renal cortical haptoglobin mRNA induction” value [5] was “raised” and the “increase in Fhc expression over control values” [6] was 24%.
With Fe sucrose [FeS] the “renal cortical HO-1 protein levels” value ([2]; 4 hrs post IV injection) was “marked HO-1 protein increases”, the “renal cortical HO-1 protein levels” value ([2]; 18 hrs post IV injection) was “remained elevated” and the “renal cortical HO-1 protein levels” value ([2]; 18 hrs post IV injection, listed as iron-sucrose) was “persists; also recorded: remained elevated”. For the same molecule, the “severity of renal injury (BUN and PCr)” value [4] was “Neither SnPP alone nor FeS alone significantly altered the severity of renal injury”, the “severity of renal injury (BUN and PCr)” value ([4]; listed as iron-sucrose) was “Neither Sn-protoporphyrin alone nor iron-sucrose alone significantly altered the severity of renal injury” and the “increase in Fhc expression over control values” [6] was 1-4%.
In the case of cyanocobalamin [B12], the “renal cortical HO-1 protein levels” value ([2]; 4 hrs post IV injection) is reported as “marked HO-1 protein increases” and the “renal cortical HO-1 protein levels” value ([2]; 18 hrs post IV injection) is reported as “persists”.
For tin mesoporphyrin [SnMeP], the “increase in renal cortical HO-1 levels over baseline” value ([2]; 4 hrs post injection) was 3 fold, the “renal cortical HO-1 mRNA induction” value ([2]; 4 hrs post injection) was “raised” and the “increase in renal cortical HO-1 levels over baseline” value ([2]; 18 hrs post injection) was 5 fold. For the same molecule, the “rise in plasma HO-1 levels” value [7] was 15 fold, the plasma haptoglobin levels ([5]; 4 and 18 hrs post injection) was “stepwise increases” and the “renal cortical haptoglobin levels” value ([5]; 4 and 18 hrs post injection) was “stepwise increases”. For the same molecule, the “renal cortical haptoglobin mRNA induction” value [5] was “raised” and the “ischemic damage (BUN and plasma creatinine concentrations)” value [8] was “lessening of ischemic damage”.
